{
  "source": "patent US11241031B2",
  "about": "“Rebaudioside A and stevioside with improved solubilities” (SWEET GREEN FIELDS USA, LLC, priority 2014, dated 2022)",
  "key": {"[1]": {"assay": "Taste profile (0-5 scale): adding additional steviol glycosides (Example 12)", "set-up": "species or system human", "settings": "added SG at 1.9 wt %; control without any added SGs", "experimental": "To evaluate the effect of adding additional SGs on taste profiles relative to a control sample, raw materials were mixed with pure water as indicated in Table 32 to obtain the aqueous solutions as indicated. Taste profiles were determined as described above in Examples 9 and 10."}, "[2]": {"assay": "Taste profile (0-5 scale): different salt conditions (Example 11)", "set-up": "species or system human", "settings": "control as named at the place", "experimental": "To evaluate the effect of different salt conditions on the resulting taste profiles relative to a control sample (i.e., 059 containing no salt), raw materials were mixed with pure water as indicated in Tables 28-31 to obtain the aqueous solutions as indicated. Taste profiles were determined as described above in Examples 9 and 10."}, "[3]": {"assay": "Double-blind Flash sensory analysis of hydrolyzed D-glucose on RA/RB and RA97", "set-up": "species or system human; scale not given here", "settings": "about 300 ppm in distilled H2O, A = 9.6 ppm, B = 4.8 ppm reacted glucose", "experimental": "Experiment 2: Testing the Sensory Effects of Hydrolyzed D-glucose on RA/RB and RA97\n1. To replicate the composition of a dried RA/RB hydrolyte treated with 0.625 mL of reagent, 5 g of RA/RB using a 61:39 ratio of RA97:RB was prepared, making sure to mix the sample thoroughly to ensure homogenization. (3.05 g RA97+1.95 g RB=5 g RA/RB blend). […] HPLC was used to confirm replication.\n2. The amount of liquid D-glucose from each vial to be equivalent to 0.96 mg D-glucose from vial A/0.48 mg reacted D-glucose from vial B (representing the reaction product from use of 300 ppm of Stevia reacted with the highest and mid-level amount of 20% NaOH (0.625 mL and 0.3215 mL respectively) would be:\n3. The following solution sets were created:\ni. 299.04 mg RA/RB blend+668.5µL D-Glucose solution vial A+distilled H2O to a final volume of 1,000 mL (299.04 ppm RA/RB+9.6 ppm reacted glucose).\nii. 299.52 mg RA/RB blend+668.5µL D-Glucose solution vial B+distilled H2O to a final volume of 1,000 mL (299.52 ppm RA/RB+4.8 ppm reacted glucose).\niii. 300 mg RA/RB blend+distilled H2O to a final volume of 1,000 mL (300 ppm RA/RB).\ni. 299.04 mg RA97+668.5µL D-Glucose solution vial A+distilled H2O to a final volume of 1,000 mL (299.04 ppm RA97+9.6 ppm reacted glucose).\nii. 299.52 mg RA97+668.5µL D-Glucose solution vial B+distilled H2O to a final volume of 1,000 mL ([…]+4.8 ppm reacted glucose).\niii. 300 mg RA97+distilled H2O to a final volume of 1,000 mL (300 ppm RA97).\nEach set was tasted using double-blind Flash sensory analysis (number of analysts=2)."}, "[4]": {"settings": "cited from earlier work"}, "[5]": {"assay": "Evaluation of other sweeteners and inorganic salts on the taste profile (Example 7)", "set-up": "species or system human", "settings": "for taste profile results, potassium chloride vs sodium chloride: Test 1, salt as component of the composition", "excerpt": "Evaluation of the Effects of Other Sweeteners and Inorganic Salts on the Taste Profile of the Composition\nTest 1: Evaluation of Compositions Comprising Sodium Chloride and Potassium Chloride\nTest 2: Evaluation of Compositions Comprising Various Sweeteners"}, "[6]": {"assay": "Taste profiling of sample formulations (Example 4, Test 1 and Test 2)", "set-up": "species or system human", "settings": "Test 2; added to RA/RB solution", "experimental": "The samples in lines 2, 4, and 8 of FIG. 1 (0.0625, 0.25, and 0.5625 20% NaOH added) were prepared by mixing raw materials and then formulated in to solutions.\nMixed product: prepared by simply mixing raw materials according to the ratio of Lot #15-0100."}},
  "data": [
    {"compound": "rebaudioside C [Reb-C]", "values": [
      {"measurement": "taste profile relative to control sample 10-1", "setting": "[1]", "value": "not significantly affected"}
    ]},
    {"compound": "O=C([O-])[O-].[K+].[K+]", "note": "[potassium carbonate]", "values": [
      {"measurement": "taste profile relative to the control sample", "setting": "[2]", "value": "not significantly affected"}
    ]},
    {"compound": "C=C1C[C@@]23CC[C@H]4[C@@](C)(CCC[C@@]4(C)C(=O)O[C@@H]4O[C@H](CO)[C@@H](O)[C@H](O)[C@H]4O)[C@@H]2CC[C@]1(O[C@@H]1O[C@H](CO)[C@@H](O)[C@H](O[C@@H]2O[C@H](CO)[C@@H](O)[C@H](O)[C@H]2O)[C@H]1O[C@@H]1O[C@H](CO)[C@@H](O)[C@H](O)[C@H]1O)C3", "note": "[RA97, Rebaudioside A]", "values": [
      {"measurement": "T#10 Bitter", "setting": "[3]", "value": 2.3},
      {"measurement": "T#10 Linger", "setting": "[3]", "value": 5},
      {"measurement": "T#10 Ov. Like", "setting": "[3]", "value": 6},
      {"measurement": "T#10 Sugar Like Body", "setting": "[3]", "value": 3.2},
      {"measurement": "T#10 Sweetness", "setting": "[3]", "value": 5.8},
      {"measurement": "T#11 Bitter", "setting": "[3]", "value": 5},
      {"measurement": "T#11 Dry", "setting": "[3]", "value": 5.9},
      {"measurement": "T#11 Linger", "setting": "[3]", "value": 5},
      {"measurement": "T#11 Ov. Like", "setting": "[3]", "value": 6.5},
      {"measurement": "T#11 Sugar Like Body", "setting": "[3]", "value": 4.4},
      {"measurement": "T#11 Sweetness", "setting": "[3]", "value": 6.8},
      {"measurement": "solubility", "setting": "[4]; in water at 25° C.", "value": 0.8, "unit": "%"}
    ]},
    {"compound": "[Ca+2].[Cl-].[Cl-]", "note": "[calcium chloride]", "values": [
      {"measurement": "taste profile relative to the control sample", "setting": "[2]", "value": "not significantly affected"}
    ]},
    {"compound": "[Cl-].[K+]", "note": "[potassium chloride]", "values": [
      {"measurement": "taste profile results, potassium chloride vs sodium chloride", "setting": "[5]", "value": "Substantially same results"}
    ]},
    {"compound": "O=C[C@H](O)[C@@H](O)[C@H](O)[C@H](O)CO", "note": "[glucose]", "values": [
      {"measurement": "effect of added component on the taste profile", "setting": "[6]", "value": "improved the “sugar like” profile"}
    ]},
    {"compound": "C=C1C[C@@]23CC[C@H]4[C@@](C)(CCC[C@@]4(C)C(=O)O[C@@H]4O[C@H](CO)[C@@H](O)[C@H](O)[C@H]4O)[C@@H]2CC[C@]1(O[C@@H]1O[C@H](CO)[C@@H](O)[C@H](O)[C@H]1O[C@@H]1O[C@H](CO)[C@@H](O)[C@H](O)[C@H]1O)C3", "note": "[stevioside]", "values": [
      {"measurement": "taste profile relative to control sample 10-1", "setting": "[1]", "value": "not significantly affected"},
      {"measurement": "solubility / dissolution (in words)", "setting": "[4]; powder in water at 25° C.", "value": "very low solubility"}
    ]},
    {"compound": "O=S(=O)([O-])[O-].[Mg+2]", "note": "[magnesium sulfate]", "values": [
      {"measurement": "taste profile relative to the control sample", "setting": "[2]", "value": "not significantly affected"}
    ]},
    {"compound": "[Cl-].[Na+]", "note": "[sodium chloride]", "values": [
      {"measurement": "effect of added component on the taste profile", "setting": "[6]", "value": "improved the “aftertaste” profile"},
      {"measurement": "taste profile results, potassium chloride vs sodium chloride", "setting": "[5]", "value": "Substantially same results"}
    ]},
    {"compound": "O=C(CO)[C@@H](O)[C@H](O)[C@H](O)CO", "note": "[fructose]", "values": [
      {"measurement": "effect of sweetener on taste profile relative to glucose", "setting": "[5]; Test 2, sweetener as component of the composition", "value": "slightly lower than glucose"}
    ]},
    {"compound": "C=C1C[C@@]23CC[C@H]4[C@@](C)(CCC[C@@]4(C)C(=O)O)[C@@H]2CC[C@]1(O[C@@H]1O[C@H](CO)[C@@H](O)[C@H](O)[C@H]1O[C@@H]1O[C@H](CO)[C@@H](O)[C@H](O)[C@H]1O)C3", "note": "[steviolbioside]", "values": [
      {"measurement": "taste profile relative to control sample 10-1", "setting": "[1]", "value": "not significantly affected"}
    ]}
  ]
}
